Our source for the EC50 values is patent EP4596536A1 (Shanghai de Novo Pharmatech Co., Ltd., priority 2022, dated 2024).

This assay has as its target T1, TLR8 (Homo sapiens, UniProt Q9NR97).
T1 construct: host or cells: HEK293 (HEK-BLUE-hTLR8)
T1 sequence (Q9NR97 27-1041): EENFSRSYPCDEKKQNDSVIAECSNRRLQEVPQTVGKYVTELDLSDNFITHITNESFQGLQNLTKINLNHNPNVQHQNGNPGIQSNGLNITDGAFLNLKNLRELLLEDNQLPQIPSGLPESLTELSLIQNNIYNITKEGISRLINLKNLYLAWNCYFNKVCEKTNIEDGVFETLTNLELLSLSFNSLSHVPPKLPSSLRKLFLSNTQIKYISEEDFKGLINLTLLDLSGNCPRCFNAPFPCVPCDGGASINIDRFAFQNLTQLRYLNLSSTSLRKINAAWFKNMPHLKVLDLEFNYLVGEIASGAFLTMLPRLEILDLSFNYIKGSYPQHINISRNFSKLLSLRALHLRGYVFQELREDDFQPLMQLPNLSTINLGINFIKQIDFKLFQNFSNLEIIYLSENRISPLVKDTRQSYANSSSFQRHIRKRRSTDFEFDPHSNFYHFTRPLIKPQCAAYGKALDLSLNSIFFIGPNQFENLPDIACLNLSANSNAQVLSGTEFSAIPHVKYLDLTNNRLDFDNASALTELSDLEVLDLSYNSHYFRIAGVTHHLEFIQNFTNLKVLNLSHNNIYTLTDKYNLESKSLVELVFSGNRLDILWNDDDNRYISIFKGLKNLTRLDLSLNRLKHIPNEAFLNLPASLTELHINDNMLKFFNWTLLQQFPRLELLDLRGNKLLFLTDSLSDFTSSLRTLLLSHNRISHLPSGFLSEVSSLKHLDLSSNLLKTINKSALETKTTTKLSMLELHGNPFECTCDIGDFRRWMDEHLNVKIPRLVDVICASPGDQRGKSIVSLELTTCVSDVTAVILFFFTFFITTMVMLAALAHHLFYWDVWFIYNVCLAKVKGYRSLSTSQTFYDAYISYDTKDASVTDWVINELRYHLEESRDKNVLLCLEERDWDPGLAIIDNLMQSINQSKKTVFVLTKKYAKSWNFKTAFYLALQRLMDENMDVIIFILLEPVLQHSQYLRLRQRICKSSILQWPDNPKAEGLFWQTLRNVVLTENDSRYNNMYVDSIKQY
The assay can be described thus: HEK-BLUE-hTLR8 cell SEAP reporter assay (Quanti-Blue). The class given is cell-based. The following applies: HEK-BLUE-hTLR8 cells, 0.5 nM to 15 µM, 24 hours. The procedure: In this experiment, the biological activity of TLR7 and TLR8 in the compound of formula I was detected using cell tests. This method was conducted in human embryonic kidney cells (HEK293) expressing TLR family members such as TLR4, TLR7, TLR8 or TLR9. TLR agonists activate TLRs, triggering the activation of downstream NF-kB, which in turn activates the secreted embryonic alkaline phosphatase (SEAP) reporter gene. The activity of SEAP was detected using the Quanti-Blue (InvivoGen) reagent, thereby reflecting the activities of TLR7 and TLR8 agonists.
The detailed experimental method was as follows: HEK-BLUE-hTLR7 and HEK-BLUE-hTLR8 cell lines were purchased from Invivogen Company and cultured in DMEM medium containing 4.5 g/L glucose (Sigma-Aldrich) and 10% fetal bovine serum under the conditions of temperature 37°C, humidity 95% and 5% CO2.
The compound was tested at a concentration ranging from 0.5 nM to 15 µM over a total of 10 concentration gradients. TLR7 or TLR8 agonists with known activity were added as positive controls, and 1 µL of DMSO was added as a negative control.
The cells were treated as follows: the cells were removed from the culture dish and centrifuged to remove the medium, and resuspended in a T-150 bottle with 10 mL of preheated PBS, 12 mL of preheated medium was added, and the cells were gently pipetted up and down and counted under a microscope. A 200,000/mL single-cell suspension was immediately prepared with medium and added to a 96-well plate at 200 µL/well (40,000/well). The final concentration of DMSO was 0.5%.
The compound was added and incubated in an incubator at 37°C, 5% CO2 for 24 hours.
A supernatant at 20 µL/well was aspirated into 180 µL of preheated Quanti-Blue at 37°C, incubated at 37°C for 1.5 hours, and detected for the absorbance (OD value) with a spectrophotometer at 650 nm. The formula for calculating the agonistic effect is as follows:
Effect % = (average OD value of the drug-administered group - average OD value of the DMSO group) / (average OD value of the positive drug group - average OD value of the DMSO group) × 100
Graphpad software was used to fit the concentration-effect curve, and EC50 was calculated. The test results are shown in Table 15 (A denotes < 250 nM, B denotes 250 nM-1 µM, C denotes 1 µM-2 µM, D denotes > 2 µM, and - denotes not listed or not tested): Table 15
A general note: Reporter assays use an easily measured gene product as a stand-in for the process of interest.
For the compound `CCCN(CCO)C(=O)C1=Cc2ccc(C3(C(=O)Nc4cnc5c(c4)CN(C(=O)CCOCCOCCOCCOCCOCCOCCNC(=O)[C@H](CCCNC(N)=O)NC(=O)[C@@H](NC(=O)CCCCCN4C(=O)C=CC4=O)C(C)C)CC5)CC3)cc2N=C(N)C1` [II-18, 2-amino-8-(1-((6-((24S,27S)-34-(2,5-dioxo-2,5-dihydro-1H-pyrrol-1-yl)-27-isopropyl-23,26,29-trioxo-24-(3-ureidopropyl)-4,7,10,13,16,19-hexaoxa-22,25,28-triazatetratriacontanacyl)-5,6,7,8-tetrahydro-1,6-naphthyridin-3-yl)carbamoyl)cyclopropyl)-N-(2-hydroxyethyl)-N-propyl-3H-benzo[b]azepine-4-formamide], the 50% effective concentration (EC50) (commonly the concentration at which the effect is half-maximal) lay within 250 to 1000 nM.
The figure for `CCCN(CCO)C(=O)C1=Cc2ccc(C3(C(=O)Nc4cnc5c(c4)CN(C(=O)[C@H](CCCNC(N)=O)NC(=O)[C@@H](NC(=O)CCCCCN4C(=O)C=CC4=O)C(C)C)CC5)CC3)cc2N=C(N)C1` [II-19, 2-amino-8-(1-((6-((S)-2-((S)-2-(6-(2,5-dioxo-2,5-dihydro-1H-pyrrol-1-yl)hexanoylamino)-3-methylbutanoylamino)-5-ureidopentanoyl)-5,6,7,8-tetrahydro-1,6-naphthyridin-3-yl)carbamoyl)cyclopropyl)-N-(2-hydroxyethyl)-N-propyl-3H-benzo[b]azepine-4-formamide] is 250 to 1000 nM; for `CCCN(CCO)C(=O)C1=Cc2ccc(C3(C(=O)Nc4cnc5c(c4)CN(C(=O)CCOCCOCCNC(=O)CN4C(=O)C=CC4=O)CC5)CC3)cc2N=C(N)C1` [II-23, 2-amino-8-(1-((6-(3-(2-(2-(2-(2,5-dioxo-2,5-dihydro-1H-pyrrol-1-yl)acetylamino)ethoxy)ethoxy)propionyl)-5,6,7,8-tetrahydro-1,6-naphthyridin-3-yl)carbamoyl)cyclopropyl)-N-(2-hydroxyethyl)-N-propyl-3H-benzo[b]azepine-4-formamide] it is under 250 nM; for `CCCN(CCO)C(=O)C1=Cc2ccc(C3(C(=O)Nc4cnc5c(c4)CN(C(=O)CNC(=O)CCOCCOCCNC(=O)CCCNC(=O)CN4C(=O)C=CC4=O)CC5)CC3)cc2N=C(N)C1` [II-24, 2-amino-8-(1-((6-(20-(2,5-dioxo-2,5-dihydro-1H-pyrrol-1-yl)-4,14,19-trioxo-7,10-dioxa-3,13,18-triazaeicosanacyl)-5,6,7,8-tetrahydro-1,6-naphthyridin-3-yl)carbamoyl)cyclopropyl)-N-(2-hydroxyethyl)-N-propyl-3H-benzo[b]azepine-4-formamide] it is 250 to 1000 nM.
In the case of `CCCN(CCO)C(=O)C1=Cc2ccc(C3(C(=O)Nc4cnc5c(c4)CN(C(=O)OCc4ccc(NC(=O)CCOCCOCCNC(=O)CCN6C(=O)C=CC6=O)cc4)CC5)CC3)cc2N=C(N)C1` [II-28, 4-(3-(2-(2-(3-(2,5-dioxo-2,5-dihydro-1H-pyrrol-1-yl)propionylamino)ethoxy)ethoxy)propionylamino)benzyl 3-(1-(2-amino-4-((2-hydroxyethyl)(propyl)carbamoyl)-3H-benzo[b]azepin-8-yl)cyclopropane-1-formylamino)-7,8-dihydro-1,6-naphthyridine-6(5H)-carboxylate] it was 250 to 1000 nM; in that of `CCCN(CCO)C(=O)C1=Cc2ccc(C3(C(=O)Nc4cnc5c(c4)CN(C(=O)OCc4ccc(O[C@@H]6O[C@H](C(=O)O)[C@@H](O)[C@H](O)[C@H]6O)c(NC(=O)CNC(=O)CCCCCN6C(=O)C=CC6=O)c4)CC5)CC3)cc2N=C(N)C1` [II-36, (2S,3S,4S,5R,6S)-6-(4-(((3-(1-(2-amino-4-((2-hydroxyethyl)(propyl)carbamoyl)-3H-benzo[b]azepin-8-yl)cyclopropyl-1-formylamino)-5,6,7,8-tetrahydro-1,6-naphthyridine-6-carbonyl)oxy)methyl)-2-(2-(6-(2,5-dioxo-2,5-dihydro-1H-pyrrol-1-yl)hexanoylamino)acetylamino)phenoxy)-3,4,5-trihydroxytetrahydro-2H-pyran-2-carboxylic acid], under 250 nM; in that of `CCCN(CCO)C(=O)C1=Cc2ccc(C3(C(=O)Nc4cnc5c(c4)CN(C(=O)CNC(=O)CCOCCOCCNC(=O)CN4C(=O)C=CC4=O)CC5)CC3)cc2N=C(N)C1` [II-46, 2-amino-8-(1-((6-(1-(2,5-dioxo-2,5-dihydro-1H-pyrrol-1-yl)-2,12-dioxo-6,9-dioxa-3,13-diazapentadecan-15-acyl)-5,6,7,8-tetrahydro-1,6-naphthyridin-3-yl)carbamoyl)cyclopropyl)-N-(2-hydroxyethyl)-N-propyl-3H-benzo[b]azepine-4-formamide], under 250 nM.
`CCCN(CCO)C(=O)C1=Cc2c(F)cc(C3(C(=O)Nc4cncc(CNC(=O)CNC(=O)CCOCCOCCNC(=O)CN5C(=O)C=CC5=O)c4)CC3)cc2N=C(N)C1` [II-64, 2-amino-8-(1-((5-(17-(2,5-dioxo-2,5-dihydro-1H-pyrrol-1-yl)-3,6,16-trioxo-9,12-dioxa-2,5,15-triazaheptadecyl)pyridin-3-yl)carbamoyl)cyclopropyl)-N-(2-hydroxyethyl)-6-fluoro-N-propyl-3H-benzo[b]azepine-4-formamide]: the EC50 is 250 to 1000 nM.
Take `CCCN(OCC)C(=O)C1=Cc2ccc(C3(C(=O)Nc4cnc5c(c4)CN(C(=O)CCOCCOCCOCCOCCOCCOCCNC(=O)CCN4C(=O)C=CC4=O)CC5)CC3)cc2N=C(N)C1` [II-66, 2-amino-8-(1-((6-(1-(2,5-dioxo-2,5-dihydro-1H-pyrrol-1-yl)-3-oxo-7,10,13,16,19,22-hexaoxa-4-azapentacosan-25-acyl)-5,6,7,8-tetrahydro-1,6-naphthyridin-3-yl)carbamoyl)cyclopropyl)-N-ethoxy-N-propyl-3H-benzo[b]azepine-4-formamide]: the EC50 is 250 to 1000 nM.
The figure for `CCCN(CCO)C(=O)C1=Cc2ccc(C3(C(=O)Nc4cnc5c(c4)CN(C(=O)OCc4ccc(NC(=O)[C@H](CC(N)=O)NC(=O)[C@H](C)NC(=O)[C@H](C)NC(=O)CCCCCN6C(=O)C=CC6=O)cc4)CC5)CC3)cc2N=C(N)C1` [II-96] is 250 to 1000 nM.
In the case of `CCCN(CCO)C(=O)C1=Cc2ccc(C3(C(=O)Nc4cnc5c(c4)CN(C(=O)OCc4ccc(NC(=O)[C@H](CCCNC(N)=O)NC(=O)[C@@H](NC(=O)Cc6ccc(N7C(=O)C=CC7=O)cc6)C(C)C)cc4)CC5)CC3)cc2N=C(N)C1` [II-97] it was 250 to 1000 nM; in that of `CCCN(CCO)C(=O)C1=Cc2ccc(C3(C(=O)Nc4cnc5c(c4)CN(C(=O)OCc4ccc(NC(=O)[C@H](CCCNC(N)=O)NC(=O)[C@@H](NC(=O)C6COC(CN7C(=O)C=CC7=O)OC6)C(C)C)cc4)CC5)CC3)cc2N=C(N)C1` (stereo partly shown) [II-98], 250 to 1000 nM.
The compound `CCCN(CCO)C(=O)C1=Cc2ccc(C3(C(=O)Nc4cnc5c(c4)CN(C(=O)CCOCCOCCNC(=O)OCc4ccc(NC(=O)[C@H](CCCNC(N)=O)NC(=O)[C@@H](NC(=O)CCCCCN6C(=O)C=CC6=O)C(C)C)cc4)CC5)CC3)cc2N=C(N)C1` [II-104] showed an EC50 of 250 to 1000 nM.
